# Laboratory results as given in US20170020867A1 (priority 2015, published 2017).
# “Also recorded” adds a separate entry of the source.
# Assays:
# [1] = tested on: human cord blood mast cells; conditions: cited from earlier work
# [2] = tested on: C Reactive Protein (CRP) level; assay: Phase IIa clinical trial: C Reactive Protein (CRP) level; type: in vivo, human
# [3] = tested on: patients with moderate to severe active Crohn's disease; assay: Phase IIa clinical trial: corticosteroids decrease; type: in vivo, human; conditions: among patients who maintained corticosteroids during the study
# Excerpt: Fifteen patients were on corticosteroids prior to study entry.
# [4] = tested on: patients with moderate to severe active Crohn's disease; conditions: human, in vivo
# [5] = tested on: patients with moderate to severe active Crohn's disease; assay: Phase IIa clinical trial: Crohn's Disease Activity Index (CDAI)
# [6] = tested on: patients with moderate to severe active Crohn's disease; assay: Phase IIa clinical trial: safety
# [7] = week 8, OC dataset, ITT population, All
# [8] = week 4, Observed Cases, ITT population
# [9] = week 8, Observed Cases, ITT population
# [10] = week 8, Observed Cases, ITT population, listed as masitinib
# [11] = week 8, patients with CDAI >350 at baseline, ITT population
# [12] = week 8, patients with CDAI >350 at baseline, ITT population, listed as masitinib
smiles,measurement,setting,value
"Cc1ccc(NC(=O)c2ccc(CN3CCN(C)CC3)cc2)cc1Nc1nc(-c2cccnc2)cs1 [Masitinib, 4-(4-methylpiperazin-1-ylmethyl)-N-[4-methyl-3-(4-pyridin-3ylthiazol-2-ylamino)phenyl]benzamide]",FcεRI-mediated degranulation,[1],inhibition of FcεRI-mediated degranulation
same,CRP level change from baseline,[2]; patients previously treated with anti-TNF,−30%
same,"CRP absolute change, Median",[2]; [7],-19.0 mg/L
same,CRP mean absolute change ± SD,[2]; [7],-19.7 ± 21.8 mg/L
same,patients whose corticosteroid dose was decreased during study,[3],50%
same,death,[4],no death
same,patients with a serious adverse event,[4]; 8 weeks,44%
same,mean CDAI decrease,[5]; 4 weeks after the initiation of treatment,80 units
same,"additional remission, number of patients",[5]; after the first 8-week period,one
same,"Complete remission, number of patients",[5]; during the first 8-week period,two
same,"Complete remission, patients",[5]; patient presenting with CDAI>350 at baseline,10%
same,"CDAI enhanced response (at least 100 pts decrease), patients","[5]; week 4, LOCF, ITT population",5 (31.3%)
same,"CDAI response (at least 70 pts decrease), patients","[5]; week 4, LOCF, ITT population",8 (50.0%)
same,"CDAI enhanced response (at least 100 pts decrease), patients",[5]; [8],5 (31.3%)
same,"CDAI response (at least 70 pts decrease), patients",[5]; [8],8 (50.0%)
same,"CDAI response (at least 70 pts decrease), patients","[5]; week 4, Observed Cases, ITT population, listed as masitinib",50%
same,"CDAI enhanced response (at least 100 pts decrease), patients","[5]; week 8, LOCF, ITT population",5 (31.3%)
same,"CDAI response (at least 70 pts decrease), patients","[5]; week 8, LOCF, ITT population",7 (43.8%)
same,Mean CDAI absolute change from baseline (SD),"[5]; week 8, LOCF, ITT population",−59.9 (112.2)
same,Median CDAI absolute change from baseline,"[5]; week 8, LOCF, ITT population",−64.5
same,Mean CDAI absolute change from baseline (SD),"[5]; week 8, OC, ITT population",−86.0 (128.9)
same,Median CDAI absolute change from baseline,"[5]; week 8, OC, ITT population",−101.0
same,Mean CDAI absolute change from baseline (SD),"[5]; week 8, OC, ITT population, listed as masitinib",−86
same,"CDAI enhanced response (at least 100 pts decrease), patients","[5]; week 8, OC, ITT, L1",(100.0%)
same,Mean CDAI absolute change from baseline,"[5]; week 8, OC, ITT, L1",−153.0
same,Median CDAI absolute change from baseline,"[5]; week 8, OC, ITT, L1",−153.0
same,"CDAI enhanced response (at least 100 pts decrease), patients","[5]; week 8, OC, ITT, L1, listed as masitinib",100%
same,"CDAI enhanced response (at least 100 pts decrease), patients","[5]; week 8, OC, ITT, L2",(0.0%)
same,Mean CDAI absolute change from baseline,"[5]; week 8, OC, ITT, L2",−50.0
same,Median CDAI absolute change from baseline,"[5]; week 8, OC, ITT, L2",−50.0
same,"CDAI enhanced response (at least 100 pts decrease), patients","[5]; week 8, OC, ITT, L3",(57.1%)
same,Mean CDAI absolute change from baseline,"[5]; week 8, OC, ITT, L3",−86.7
same,Median CDAI absolute change from baseline,"[5]; week 8, OC, ITT, L3",−103.0
same,"CDAI enhanced response (at least 100 pts decrease), patients","[5]; week 8, OC, ITT, L3, listed as masitinib",57%
same,"CDAI response (at least 70 pts decrease), patients","[5]; week 8, OC, ITT, patients naive or previously treated with corticosteroids (L1)",(100.0%)
same,"CDAI response (at least 70 pts decrease), patients","[5]; week 8, OC, ITT, patients previously treated with azathioprine (Immurel) or immunotherapy (L2)",(50.0%)
same,"CDAI response (at least 70 pts decrease), patients","[5]; week 8, OC, ITT, patients previously treated with biological agent (L3)",(71.4%)
same,"CDAI response (at least 70 pts decrease), patients","[5]; week 8, OC, ITT, patients previously treated with biological agent (L3), listed as masitinib",71%
same,"CDAI enhanced response (at least 100 pts decrease), patients",[5]; [9],5 (50.0%)
same,"CDAI response (at least 70 pts decrease), patients",[5]; [9],7 (70.0%)
same,improvement of mean disease activity,[5]; [9],23%
same,"CDAI enhanced response (at least 100 pts decrease), patients",[5]; [10],50%
same,"CDAI response (at least 70 pts decrease), patients",[5]; [10],70%
same,CDAI absolute change from baseline Mean (SD),[5]; [11],−152.3 (78.5)
same,"CDAI absolute change from baseline, Median",[5]; [11],−116.5
same,"CDAI enhanced response (at least 100 pts decrease), patients",[5]; [11],4 (66.7%)
same,"CDAI response (at least 70 pts decrease), patients",[5]; [11],6 (100.0%)
same,"CDAI enhanced response (at least 100 pts decrease), patients",[5]; [12],67%
same,"CDAI response (at least 70 pts decrease), patients",[5]; [12],100%
same,tolerability,"[6]; 8 weeks of observation, 4.5 or 6 mg/kg/day oral in two daily intakes",well tolerated; also recorded: well-tolerated
same,patients who experienced at least one adverse event (AE),[6]; during the treatment,94%
same,"adverse event abdominal pain, patients","[6]; human, in vivo",22%
same,"adverse event asthenia, patients","[6]; human, in vivo",33%
same,"adverse event nausea, patients","[6]; human, in vivo",28%
same,"adverse event vomiting, patients","[6]; human, in vivo",33%
